From ChEMBL document CHEMBL2069259, “Preclinical strategy to reduce clinical hepatotoxicity using in vitro bioactivation data for >200 compounds” (Chem Res Toxicol, 2012)

Columns and labels:
[1] = system: Liver microsomes; conditions: human, 1.5 h, 100 µM
[2] = target: CYP2C19 (Homo sapiens, UniProt P33261); experiment: Inhibition of human CYP2C19 assessed as ratio of IC50 in absence of NADPH to IC50 for presence of NADPH using 3-butyryl-7-methoxycoumarin as substrate after 30 mins
[3] = system: Liver microsomes; experiment: Metabolic stability in human liver microsomes assessed as high signal/noise ratio (S/N of >100) by measuring GSH adduct formation at 100 uM after 90 mins by HPLC-MS analysis; conditions: 1.5 h
[4] = system: Liver microsomes; experiment: Metabolic stability in human liver microsomes assessed as GSH adduct formation at 100 uM after 90 mins by HPLC-MS analysis; conditions: 1.5 h
[5] = system: Liver microsomes; experiment: Metabolic stability in human liver microsomes assessed as low signal/noise ratio (S/N of 1 to 10) by measuring GSH adduct formation at 100 uM after 90 mins by HPLC-MS analysis; format: ADME, Microsome; conditions: 1.5 h
[6] = target: T1, CYP3A4 (Homo sapiens, UniProt P08684); experiment: Inhibition of human CYP3A4 assessed as ratio of IC50 in absence of NADPH to IC50 for presence of NADPH using diethoxyfluorescein as substrate after 30 mins
T1 sequence (P08684 whole entry): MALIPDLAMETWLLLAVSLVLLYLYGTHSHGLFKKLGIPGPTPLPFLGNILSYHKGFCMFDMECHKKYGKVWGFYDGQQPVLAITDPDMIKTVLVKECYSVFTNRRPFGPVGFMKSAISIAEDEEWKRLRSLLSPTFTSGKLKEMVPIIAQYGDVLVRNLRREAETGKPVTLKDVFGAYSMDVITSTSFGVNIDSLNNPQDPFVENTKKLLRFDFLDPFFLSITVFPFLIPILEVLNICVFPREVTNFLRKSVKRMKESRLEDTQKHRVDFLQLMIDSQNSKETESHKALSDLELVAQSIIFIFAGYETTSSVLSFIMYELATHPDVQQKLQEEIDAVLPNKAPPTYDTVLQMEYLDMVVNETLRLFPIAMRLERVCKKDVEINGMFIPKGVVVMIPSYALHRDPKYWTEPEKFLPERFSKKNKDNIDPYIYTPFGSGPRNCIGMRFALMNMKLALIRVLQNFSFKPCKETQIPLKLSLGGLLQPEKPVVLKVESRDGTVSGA

[7] = target: T1, CYP3A4; experiment: Inhibition of human CYP3A4 assessed as ratio of IC50 in absence of NADPH to IC50 for presence of NADPH using 7-benzyloxyquinoline as substrate after 30 mins
[8] = probe 3-butyryl-7-methoxycoumarin

Chain of CYP2C19 (P33261 whole entry): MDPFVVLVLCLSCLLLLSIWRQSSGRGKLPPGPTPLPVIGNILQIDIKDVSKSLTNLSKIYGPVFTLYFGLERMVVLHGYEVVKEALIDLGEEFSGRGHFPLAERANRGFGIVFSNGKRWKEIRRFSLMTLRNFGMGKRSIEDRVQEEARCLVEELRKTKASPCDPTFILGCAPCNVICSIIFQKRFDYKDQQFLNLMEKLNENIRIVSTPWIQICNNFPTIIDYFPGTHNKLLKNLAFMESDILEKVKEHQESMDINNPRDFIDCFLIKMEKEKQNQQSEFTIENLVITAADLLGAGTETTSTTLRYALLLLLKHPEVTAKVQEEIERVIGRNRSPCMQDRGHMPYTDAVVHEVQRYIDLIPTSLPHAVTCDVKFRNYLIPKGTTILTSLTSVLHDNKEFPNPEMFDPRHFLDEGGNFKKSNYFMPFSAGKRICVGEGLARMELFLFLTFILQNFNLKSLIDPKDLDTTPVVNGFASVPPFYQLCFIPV

CC1=C(CC(=O)O)c2cc(F)ccc2/C1=C\c1ccc([S+](C)[O-])cc1 (configuration not stated)
Stability [1]: Unstable

Nc1ccc(C(=O)O)c(O)c1 [AMINOSALICYLIC ACID]
Stability [1]: Unstable

CN(C)CCC=C1c2ccccc2CCc2ccccc21 [AMITRIPTYLINE]
IC50 shift at 0.5 h [2, 8]: < 2
Stability [3]: Unstable

C[C@@H]1[C@H](O)[C@@H](C)/C=C/C=C/C=C/C=C/C=C/C=C/C=C/[C@H](O[C@@H]2O[C@H](C)[C@@H](O)[C@H](N)[C@@H]2O)C[C@@H]2O[C@](O)(C[C@@H](O)C[C@@H](O)[C@H](O)CC[C@@H](O)C[C@@H](O)CC(=O)O[C@H]1C)C[C@H](O)[C@H]2C(=O)O [AMPHOTERICIN B]
IC50 shift at 0.5 h [2, 8]: < 2
Stability [4]: Stable

CC(=O)Oc1ccccc1C(=O)O [ASPIRIN]
IC50 shift at 0.5 h [2]: < 2
Stability [4]: Stable

Cc1cc(C(C)(C)C)c(O)c(C(C)(C)C)c1 [BUTYLATED HYDROXYTOLUENE]
Stability [5]: Unstable

O=NN(CCCl)C(=O)NCCCl [CARMUSTINE]
Stability [1]: Unstable

O=C1CCc2cc(OCCCCc3nnnn3C3CCCCC3)ccc2N1 [CILOSTAZOL]
IC50 shift at 0.5 h [6]: 2
IC50 shift at 0.5 h [7]: 2
Stability [4]: Stable

CC[C@H]1OC(=O)[C@H](C)[C@@H](O[C@H]2C[C@@](C)(OC)[C@@H](O)[C@H](C)O2)[C@H](C)[C@@H](O[C@@H]2O[C@H](C)C[C@H](N(C)C)[C@H]2O)[C@](C)(OC)C[C@@H](C)C(=O)[C@H](C)[C@@H](O)[C@]1(C)O [CLARITHROMYCIN]
IC50 shift at 0.5 h ([6]; probe diethoxyfluorescein): > 5
IC50 shift at 0.5 h ([7]; probe 7-benzyloxyquinoline): > 5
Stability [4]: Stable

CN1CCC[C@@H]1CCO[C@](C)(c1ccccc1)c1ccc(Cl)cc1 [CLEMASTINE]
IC50 shift at 0.5 h [2]: < 2
IC50 shift at 0.5 h [6]: 2
IC50 shift at 0.5 h [7]: > 5
Stability [4]: Stable

COc1cc2c(c(OC)c1OC)-c1ccc(OC)c(=O)cc1[C@@H](NC(C)=O)CC2 [COLCHICINE]
Stability [5]: Unstable

O=c1ccc2ccccc2o1 [COUMARIN]
Stability [1]: Unstable

O=P1(N(CCCl)CCCl)NCCCO1 (configuration not stated) [CYCLOPHOSPHAMIDE ANHYDROUS]
Stability [1]: Unstable

C#C[C@]1(O)CC[C@H]2[C@@H]3CCC4=Cc5oncc5C[C@]4(C)[C@H]3CC[C@@]21C [DANAZOL]
IC50 shift at 0.5 h [2]: < 2
Stability [1]: Unstable

Nc1ccc(S(=O)(=O)c2ccc(N)cc2)cc1 [DAPSONE]
Stability [5]: Unstable

O=C(O)Cc1ccccc1Nc1c(Cl)cccc1Cl [DICLOFENAC]
Stability [1]: Unstable

CN(CCOc1ccc(NS(C)(=O)=O)cc1)CCc1ccc(NS(C)(=O)=O)cc1 [DOFETILIDE]
Stability [1]: Unstable

COc1cccc2c1C(=O)c1c(O)c3c(c(O)c1C2=O)C[C@@](O)(C(=O)CO)C[C@@H]3O[C@H]1C[C@H](N)[C@H](O)[C@H](C)O1 [DOXORUBICIN]
IC50 shift at 0.5 h [6]: 2
IC50 shift at 0.5 h [7]: > 5
Stability [1]: Unstable

C[C@]12CC[C@@H]3c4ccc(O)cc4CC[C@H]3[C@@H]1CC[C@@H]2O [ESTRADIOL]
IC50 shift at 0.5 h ([6]; probe diethoxyfluorescein): < 2
Stability [3]: Unstable

C[C@]12CC[C@@H]3c4ccc(O)cc4CC[C@H]3[C@@H]1C[C@@H](O)[C@@H]2O [ESTRIOL]
Stability [1]: Unstable

C#C[C@]1(O)CC[C@H]2[C@@H]3CCc4cc(O)ccc4[C@H]3CC[C@@]21C [ETHINYL ESTRADIOL]
IC50 shift at 0.5 h ([6]; probe diethoxyfluorescein): 2
IC50 shift at 0.5 h ([7]; probe 7-benzyloxyquinoline): 2
Stability [3]: Unstable

O=C(OCC(O)CO)c1ccccc1Nc1ccnc2cc(Cl)ccc12 (configuration not stated) [GLAFENINE]
Stability [5]: Unstable

NNc1nncc2ccccc12 [HYDRALAZINE]
Stability [1]: Unstable

CC(C)NNC(=O)c1ccncc1 [IPRONIAZID]
IC50 shift at 0.5 h ([6]; probe diethoxyfluorescein): > 5
Stability [4]: Stable

CC(=O)N1CCN(c2ccc(OCC3COC(Cn4ccnc4)(c4ccc(Cl)cc4Cl)O3)cc2)CC1 (configuration not stated) [KETOCONAZOLE]
Stability [5]: Unstable

N[C@@H](Cc1cc(I)c(Oc2ccc(O)c(I)c2)c(I)c1)C(=O)O [LIOTHYRONINE]
Stability [5]: Unstable

CC[C@H](C)C(=O)O[C@H]1C[C@@H](C)C=C2C=C[C@H](C)[C@H](CC[C@@H]3C[C@@H](O)CC(=O)O3)[C@H]21 [LOVASTATIN]
Stability [1]: Unstable

CNC1(C)C2CCC(C2)C1(C)C (configuration not stated) [MECAMYLAMINE]
IC50 shift at 0.5 h [2]: < 2
Stability [4]: Stable

Cc1cccc(CN2CCN(C(c3ccccc3)c3ccc(Cl)cc3)CC2)c1 (configuration not stated) [MECLIZINE]
IC50 shift at 0.5 h [2, 8]: > 5
IC50 shift at 0.5 h ([6]; probe diethoxyfluorescein): 2
IC50 shift at 0.5 h ([7]; probe 7-benzyloxyquinoline): > 5
Stability [4]: Stable

Cc1coc2c1CCC(C)C2 (configuration not stated) [MENTHOFURAN]
IC50 shift at 0.5 h [2, 8]: < 2

Cc1cccc(C)c1NC(=O)C1CCCCN1C (configuration not stated) [MEPIVACAINE]
IC50 shift at 0.5 h ([6]; probe diethoxyfluorescein): 2
IC50 shift at 0.5 h ([7]; probe 7-benzyloxyquinoline): 2
Stability [4]: Stable

C#C[C@]1(O)CC[C@H]2[C@@H]3CCc4cc(OC)ccc4[C@H]3CC[C@@]21C [MESTRANOL]
IC50 shift at 0.5 h ([6]; probe diethoxyfluorescein): > 5
IC50 shift at 0.5 h ([7]; probe 7-benzyloxyquinoline): > 5
Stability [1]: Unstable

COc1ccccc1OCC(O)COC(N)=O (configuration not stated) [METHOCARBAMOL]
IC50 shift at 0.5 h [2, 8]: < 2
Stability [4]: Stable

C[C@](N)(Cc1ccc(O)c(O)c1)C(=O)O [METHYLDOPA]
Stability [5]: Unstable

CN(C)c1ccc(O)c2c1C[C@H]1C[C@H]3[C@H](N(C)C)C(O)=C(C(N)=O)C(=O)[C@@]3(O)C(O)=C1C2=O [MINOCYCLINE]
Stability [1]: Unstable

CC(C)[C@H]1CC[C@H](C(=O)N[C@H](Cc2ccccc2)C(=O)O)CC1 [NATEGLINIDE]
Stability [1]: Unstable

Cc1ccnc2c1NC(=O)c1cccnc1N2C1CC1 [NEVIRAPINE]
IC50 shift at 0.5 h ([6]; probe diethoxyfluorescein): 2
Stability [4]: Stable

CS(=O)(=O)Nc1ccc([N+](=O)[O-])cc1Oc1ccccc1 [NIMESULIDE]
IC50 shift at 0.5 h [6]: 2
IC50 shift at 0.5 h [7]: < 2
Stability [5]: Unstable

COC(=O)C1=C(C)NC(C)=C(C(=O)OCC(C)C)C1c1ccccc1[N+](=O)[O-] (configuration not stated) [NISOLDIPINE]
Stability [1]: Unstable

COc1ccc2[nH]c([S+]([O-])Cc3ncc(C)c(OC)c3C)nc2c1 (configuration not stated) [OMEPRAZOLE]
IC50 shift at 0.5 h [2]: < 2
IC50 shift at 0.5 h [6]: 2
Stability [3]: Unstable

C[C@H]1[C@H](c2ccccc2)OCCN1C [PHENDIMETRAZINE]
Stability [5]: Unstable

CCc1ccc(CCOc2ccc(CC3SC(=O)NC3=O)cc2)nc1 (configuration not stated) [PIOGLITAZONE]
Stability [1]: Unstable

CN1C(C(=O)Nc2ccccn2)=C(O)c2ccccc2S1(=O)=O [PIROXICAM]
Stability [5]: Unstable

CC(C(=O)O)c1ccc(N2CC=CC2)c(Cl)c1 (configuration not stated) [PIRPROFEN]
Stability [1]: Unstable

C[C@]12C=CC(=O)C=C1CC[C@@H]1[C@@H]2C(=O)C[C@@]2(C)[C@H]1CC[C@]2(O)C(=O)CO [PREDNISONE]
Stability [5]: Unstable

CN1CCN(CCCN2c3ccccc3Sc3ccc(Cl)cc32)CC1 [PROCHLORPERAZINE]
Stability [5]: Unstable

CCCc1cc(=O)[nH]c(=S)[nH]1 [PROPYLTHIOURACIL]
IC50 shift at 0.5 h [6]: > 5
IC50 shift at 0.5 h [7]: > 5
Stability [3]: Unstable

CN(C)C(=O)Oc1ccc[n+](C)c1 [PYRIDOSTIGMINE]
IC50 shift at 0.5 h [2]: 2
Stability [3]: Unstable

Cc1cn([C@H]2C=C[C@@H](CO)O2)c(=O)[nH]c1=O [STAVUDINE]
Stability [1]: Unstable

COc1ncnc(NS(=O)(=O)c2ccc(N)cc2)c1OC [SULFADOXINE]
Stability [1]: Unstable

Nc1ccc(S(=O)(=O)Nc2ccnn2-c2ccccc2)cc1 [SULFAPHENAZOLE]
Stability [5]: Unstable

O=C(O)c1cc(/N=N/c2ccc(S(=O)(=O)Nc3ccccn3)cc2)ccc1O [SULFASALAZINE]
IC50 shift at 0.5 h [2, 8]: < 2
Stability [4]: Stable

CN(C)[C@@H]1C(O)=C(C(N)=O)C(=O)[C@@]2(O)C(O)=C3C(=O)c4c(O)cccc4[C@@](C)(O)[C@H]3C[C@@H]12 [TETRACYCLINE]
Stability [1]: Unstable

Cc1c(C)c2c(c(C)c1O)CCC(C)(COc1ccc(CC3SC(=O)NC3=O)cc1)O2 (configuration not stated) [TROGLITAZONE]
IC50 shift at 0.5 h [6]: 2
Stability [1]: Unstable

COc1cc(C(=O)NS(=O)(=O)c2ccccc2C)ccc1Cc1cn(C)c2ccc(NC(=O)OC3CCCC3)cc12 [ZAFIRLUKAST]
IC50 shift at 0.5 h ([6]; probe diethoxyfluorescein): > 5
IC50 shift at 0.5 h ([7]; probe 7-benzyloxyquinoline): 2
